US6410581B1, “Disubstituted biphenyloxazolines” (Bayer Aktiengesellschaft, priority 1997, dated 2002)

How the values were obtained:
[1] = system: larvae of the mustard beetle (Phaedon cochleariae); experiment: Phaedon larvae test; format: in vivo; conditions: after 7 days
Description: (§1) Solvent: 7 parts by weight of dimethylformamide
(§2) Emulsifier: 1 part by weight of alkylaryl polyglycol ether
To produce a suitable preparation of active compound, 1 part of weight of active compound is mixed with the stated amount of solvent and the stated amount of emulsifier, and the concentrate is diluted with water to the desired concentration.
After the desired period of time, the kill in % is determined. 100% means that all the beetle larvae have been killed; 0% means that none of the beetle larvae have been killed.

[2] = system: All larval stages of Lucilia cuprina (OP resistant); experiment: Test with fly larvae/development-inhibitory activity; format: in vivo; conditions: concentration 100 ppm
Description: Test with Fly Larvae/development-inhibitory Activity
Test animals: All larval stages of Lucilia cuprina (OP resistant) [pupae and adults (without contact with the active compound)]
35 parts by weight of ethylene glycol monomethyl ether
35 parts by weight of nonylphenol polyglycol ether
To prepare a suitable formulation, 3 parts by weight of active compound are mixed with 7 parts of the abovementioned solvent-emulsifier mixture, and the resulting emulsion concentrate is diluted with water to the concentration desired in each case.
For each concentration, 30 to 50 larvae are transferred to horse meat (1 cm^3) located in glass tubes, and 500 μl of the test dilution are pipetted onto the meat. The glass tubes are placed into plastic beakers whose bottom is covered with sea sand and kept in a controlled-environment cabinet (26° C. ±1.5° C., 70% ±10% relative humidity). Larvicidal activity is checked after 24 hours and 48 hours. After the larvae have left (about 72 h), the glass tubes are removed and perforated plastic lids are placed on the beakers. After 1½ times the development period (hatching of the control flies), the hatched flies and the pupae/puparia are counted.
The criterion for the activity is the death of the treated larvae after 48 h (larvicidal effect), or inhibition of adults hatching from the pupae or inhibition of pupation. […]

[3] = log p, n-octanol/water partition coefficient by reverse phase HPLC (H2O/CH3CN); format: physicochemical; conditions: for chromatographic logP: n-octanol/water
[4] = system: caterpillars of the owlet moth (Spodoptera frugiperda); experiment: Spodoptera test; format: in vivo; conditions: active compound concentration 0.1%, after 7 days
Description: as §1, §2
(§3) To produce a suitable preparation of active compound, 1 part by weight of active compound is mixed with the stated amount of solvent and the stated amount of emulsifier, and the concentrate is diluted with water to the desired concentration.
Cabbage leaves (Brassica oleracea) are treated by being dipped into the active compound preparation of the desired concentration and populated with caterpillars of the owlet moth (Spodoptera frugiperda) while the leaves are still moist.
(§4) After the desired period of time, the kill in % is determined. 100% means that all the caterpillars have been killed; 0% means that none of the caterpillars have been killed.

[5] = system: greenhouse red spider mite (Tetranychus urticae); experiment: Tetranychus test (OP resistant/dip treatment); format: in vivo; conditions: active compound concentration 0.01%, after 7 days
Description: Tetranychus Test (OP Resistant/Dip Treatment)
Solvent: 3 parts by weight of dimethylformamide
as §2
To produce a suitable preparation of active compound, 1 part by weight of active compound is mixed with the stated amount of solvent and the stated amount of emulsifier, and the concentrate is diluted to the desired concentration using emulsifier-containing water.
Bean plants (Phaseolus vulgaris) which are heavily infested by all stages of the greenhouse red spider mite (Tetranychus urticae) are dipped into an active compound preparation of the desired concentration.
After the desired period of time, the kill in % is determined. 100% means that all the spider mites have been killed; 0% means that none of the spider mites have been killed.

[6] = system: caterpillars of the army worm (Spodoptera exigua); experiment: Spodoptera exigua test; format: in vivo; conditions: active compound concentration 0.1%, after 6 days
Description: as §1, §2, §3
Cabbage leaves (Brassica oleracea) are treated by being dipped into the active compound preparation of the desired concentration and populated with caterpillars of the army worm (Spodoptera exigua) while the leaves are still moist.
After the desired period of time, the activity in % is determined. 100% means that all the caterpillars have been killed; 0% means that none of the caterpillars have been killed.

[7] = system: caterpillars of the diamond back moth (Plutella xylostella); experiment: Plutella test; format: in vivo; conditions: active compound concentration 0.1%, after 6 days
Description: as §1, §2, §3
Cabbage leaves (Brassica oleracea) are treated by being dipped into the active compound preparation of the desired concentration and populated with caterpillars of the diamond back moth (Plutella xylostella) while the leaves are still moist.
as §4

[8] = system: caterpillars of the cotton bollworm (Heliothis armigera); experiment: Heliothis armigera test; format: in vivo; conditions: active compound concentration 0.1%, in 6 days
Description: as §1, §2
To produce a suitable preparation of active compound, 1 part by weight of active compound is mixed with the stated amounts of solvent and emulsifier, and the concentrate is diluted with water to the desired concentration.
Soya bean shoots (Glycine max) are treated by being dipped into the active compound preparation of the desired concentration and populated with caterpillars of the cotton bollworm (Heliothis armigera) while the leaves are still moist.
as §4

[9] = system: green rice leaf hoppers (Nephotettix cincticeps); experiment: Nephotettix test; format: in vivo; conditions: active compound concentration 1%, after 6 days
Description: as §1, §2, §3
Rice seedlings (Oryza sativa) are treated by being dipped into the active compound preparation of the desired concentration and populated with green rice leaf hoppers (Nephotettix cincticeps) while the seedlings are still moist.
After the desired period of time, the kill in % is determined. 100% means that all the leaf hoppers have been killed; 0% means that none of the leaf hoppers have been killed.

[10] = active compound concentration 0.01%
[11] = active compound concentration 0.1%

`CCCc1cc(-c2ccc(C3COC(c4c(F)cccc4F)=N3)cc2)ccc1OC(C)C` (stereo not shown) [Example I-2, 2-(2,6-Difluorophenyl)-4-(4-(4-propyl-2-oxy)-3-n-propylphenyl)phenyl-2-oxazoline] showed a kill in % [1, 10] of 100% and a melting point of 60 to 62 °C.
In the case of `CC(C)Oc1ccc(-c2ccc(C3COC(c4c(F)cccc4F)=N3)cc2)cc1Cl` (stereo not shown) [Example I-19], the kill in % [1, 10] is reported as 100%, the development-inhibitory activity [2] is reported as 100% and the log p ([3]; pH 7.5) is reported as “log p (pH 7.5): 4.96”.
In the case of `CC(C)(C)c1ccc(COc2ccc(-c3ccc(C4COC(c5c(F)cccc5F)=N4)cc3)cc2Cl)cc1` (stereo not shown) [Example I-22], the development-inhibitory activity [2] is reported as 100%.
For `CC(C)Oc1ccc(-c2ccc(C3COC(c4ccccc4Cl)=N3)cc2)cc1Cl` (stereo not shown) [Example I-30], the kill in % [1, 10] was 100% and the log p ([3]; pH 7.5) was “log p (pH 7.5): 5.37”.
With `C=CCc1cc(-c2ccc(C3COC(c4ccccc4Br)=N3)cc2)ccc1OC(C)C` (stereo not shown) [Example I-291] the log p ([3]; pH 7.5) was “log p: 6.02”.
In the case of `C=CCOc1ccc(-c2ccc(C3COC(c4ccccc4Br)=N3)cc2)cc1CC=C` (stereo not shown) [Example I-293], the log p ([3]; pH 7.5) is reported as “log p: 5.66”.
In the case of `CC(C)Oc1ccc(-c2ccc(C3COC(c4ccccc4Br)=N3)cc2)cc1Cl` (stereo not shown) [Example I-302], the log p ([3]; pH 7.5) is reported as “log p: 5.42”.
For `C=CCOc1ccc(-c2ccc(C3COC(c4ccccc4Br)=N3)cc2)cc1Cl` (stereo not shown) [Example I-304], the log p ([3]; pH 7.5) was “log p: 5.13”.
In the case of `C=CCOc1ccc(-c2ccc(C3COC(c4ccccc4C)=N3)cc2)cc1CCC` (stereo not shown) [Example I-314], the chromatographic logP ([3]; pH 7.5) is reported as 6.44.
`CC(C)Oc1c(Cl)cc(-c2ccc(C3COC(c4c(F)cccc4F)=N3)cc2)cc1Cl` (stereo not shown) [Example I-342, 2-(2,6-Difluorophenyl)-4-(4-(4-(propyl-2-oxy)-3,5-dichlorophenyl)phenyl)-4,5-dihydro-oxazoline] gave a kill in % [1, 11] of 100%, a kill in % [4] of 100% and a kill in % [5] of 100%. The kill in % [6] was 100%, the kill in % [7] was 100% and the kill in % [8] was 100%. It also gave a log p ([3]; pH 7.5) of 5.65.
Work on `C=CCOc1c(Cl)cc(-c2ccc(C3COC(c4c(F)cccc4F)=N3)cc2)cc1Cl` (stereo not shown) [Example I-344] yielded a kill in % [1, 11] of 100%, a kill in % [4] of 100% and a kill in % [5] of 100%. It also gave a kill in % [9] of 100%.
For `CCCc1cc(-c2ccc(C3COC(c4c(F)cccc4F)=N3)cc2)ccc1O` (stereo not shown) [II-1, 2-(2,6-Difluorophenyl)-4-(4-(4-hydroxy-3-n-propylphenyl)phenyl)-2-oxazoline], the chromatographic logP ([3]; pH 7.5) was 3.77.
With `C=CCc1cc(-c2ccc(C3COC(c4c(F)cccc4F)=N3)cc2)cc(C)c1O` (stereo not shown) [II-12] the log p ([3]; pH 7.5) was “log p: 3.83”.
In the case of `C=CCc1cc(-c2ccc(C3COC(c4ccccc4C)=N3)cc2)cc(Cl)c1O` (stereo not shown) [II-14], the log p ([3]; pH 7.5) is reported as “log p: 4.75”.
For `C=CCc1cc(-c2ccc(C3COC(c4ccccc4Cl)=N3)cc2)cc(C)c1O` (stereo not shown) [II-19], the log p ([3]; pH 7.5) was “log p: 4.14”.
In the case of `C=CCc1cc(-c2ccc(C3COC(c4ccccc4Br)=N3)cc2)cc(Cl)c1O` (stereo not shown) [II-21], the log p ([3]; pH 7.5) is reported as “log p: 4.42”.
In the case of `CCc1cc(-c2ccc(C3COC(c4c(F)cccc4F)=N3)cc2)ccc1O` (stereo not shown) [II-24], the log p ([3]; pH 7.5) is reported as “log p: 3.42”.
For `CCCc1cc(-c2ccc(C(CCl)NC(=O)c3c(F)cccc3F)cc2)ccc1OC(C)=O` (stereo not shown) [VI-1, 2,6-Difluoro-N-[2-chloro-1-(4-(4-acetoxy-3-n-propylphenyl)phenyl)ethyl]-benzamide], the chromatographic logP ([3]; pH 2.3) was 3.92.
